Experimental data published in ChEMBL document CHEMBL1130164 (J Med Chem, 1997).

Key:
[1] = target: Protein kinase C eta type (Homo sapiens, UniProt P24723); assay: Inhibitory concentration against recombinant human Protein kinase C eta isozyme
[2] = target: cAMP-dependent protein kinase catalytic subunit alpha (Homo sapiens, UniProt P17612); assay: Inhibitory concentration against recombinant human cAMP-dependent Protein kinase A
[3] = target: T1, Protein kinase C zeta type (Homo sapiens, UniProt Q05513); assay: Inhibitory concentration against recombinant human Protein kinase C zeta isozyme
T1 sequence (Q05513 whole entry): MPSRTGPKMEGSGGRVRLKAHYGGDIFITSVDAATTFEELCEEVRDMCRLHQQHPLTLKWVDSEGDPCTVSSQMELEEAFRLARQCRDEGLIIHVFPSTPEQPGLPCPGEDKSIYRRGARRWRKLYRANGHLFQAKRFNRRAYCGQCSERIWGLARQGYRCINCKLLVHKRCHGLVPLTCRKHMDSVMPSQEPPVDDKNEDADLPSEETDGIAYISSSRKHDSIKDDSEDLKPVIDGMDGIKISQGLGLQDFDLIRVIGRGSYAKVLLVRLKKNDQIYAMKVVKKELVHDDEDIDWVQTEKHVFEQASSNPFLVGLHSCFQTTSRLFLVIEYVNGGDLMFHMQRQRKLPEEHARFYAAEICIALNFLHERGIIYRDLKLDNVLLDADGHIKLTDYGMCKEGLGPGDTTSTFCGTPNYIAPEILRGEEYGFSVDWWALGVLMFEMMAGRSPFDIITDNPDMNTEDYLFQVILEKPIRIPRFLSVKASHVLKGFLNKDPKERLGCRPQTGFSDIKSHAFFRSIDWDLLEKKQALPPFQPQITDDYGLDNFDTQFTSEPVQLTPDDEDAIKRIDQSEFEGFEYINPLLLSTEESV

[4] = target: Protein kinase C gamma type (Homo sapiens, UniProt P05129); assay: Inhibitory concentration against recombinant human Protein kinase C gamma isozyme
[5] = target: Protein kinase C delta type (Homo sapiens, UniProt Q05655); assay: Inhibitory concentration against recombinant human Protein kinase C delta isozyme
[6] = target: T2, Protein kinase C epsilon type (Homo sapiens, UniProt Q02156); assay: Inhibitory concentration against recombinant human Protein kinase C epsilon isozyme
T2 sequence (Q02156 whole entry): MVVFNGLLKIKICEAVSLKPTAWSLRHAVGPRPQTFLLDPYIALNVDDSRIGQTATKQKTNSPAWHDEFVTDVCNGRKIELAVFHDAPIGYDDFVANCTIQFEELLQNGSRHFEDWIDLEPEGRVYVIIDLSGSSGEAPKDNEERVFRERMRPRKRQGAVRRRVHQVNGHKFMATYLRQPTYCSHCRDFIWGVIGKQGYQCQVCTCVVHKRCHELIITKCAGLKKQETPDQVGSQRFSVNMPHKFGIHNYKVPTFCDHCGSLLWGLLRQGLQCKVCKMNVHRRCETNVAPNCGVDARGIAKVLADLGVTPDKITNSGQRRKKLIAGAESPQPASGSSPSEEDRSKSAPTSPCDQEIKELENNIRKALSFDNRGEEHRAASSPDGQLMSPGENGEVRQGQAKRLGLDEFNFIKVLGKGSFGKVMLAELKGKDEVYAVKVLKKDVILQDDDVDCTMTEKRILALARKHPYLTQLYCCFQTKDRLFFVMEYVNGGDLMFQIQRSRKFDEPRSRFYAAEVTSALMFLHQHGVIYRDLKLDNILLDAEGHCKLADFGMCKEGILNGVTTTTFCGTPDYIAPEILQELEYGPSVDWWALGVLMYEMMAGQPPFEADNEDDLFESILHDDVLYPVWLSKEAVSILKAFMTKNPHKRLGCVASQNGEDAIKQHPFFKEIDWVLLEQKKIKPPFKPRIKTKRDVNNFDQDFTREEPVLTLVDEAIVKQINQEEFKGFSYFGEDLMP

[7] = target: T3, Protein kinase C beta type (Homo sapiens, UniProt P05771); assay: Inhibitory concentration against recombinant human Protein kinase C beta 2 isozyme
[8] = target: Protein kinase C alpha type (Homo sapiens, UniProt P17252); assay: Inhibitory concentration against recombinant human Protein kinase C alpha isozyme
[9] = target: T3, Protein kinase C beta type; assay: Inhibitory concentration against recombinant human Protein kinase C beta 1 isozyme

Protein kinase C delta type, sequence (Q05655 whole entry): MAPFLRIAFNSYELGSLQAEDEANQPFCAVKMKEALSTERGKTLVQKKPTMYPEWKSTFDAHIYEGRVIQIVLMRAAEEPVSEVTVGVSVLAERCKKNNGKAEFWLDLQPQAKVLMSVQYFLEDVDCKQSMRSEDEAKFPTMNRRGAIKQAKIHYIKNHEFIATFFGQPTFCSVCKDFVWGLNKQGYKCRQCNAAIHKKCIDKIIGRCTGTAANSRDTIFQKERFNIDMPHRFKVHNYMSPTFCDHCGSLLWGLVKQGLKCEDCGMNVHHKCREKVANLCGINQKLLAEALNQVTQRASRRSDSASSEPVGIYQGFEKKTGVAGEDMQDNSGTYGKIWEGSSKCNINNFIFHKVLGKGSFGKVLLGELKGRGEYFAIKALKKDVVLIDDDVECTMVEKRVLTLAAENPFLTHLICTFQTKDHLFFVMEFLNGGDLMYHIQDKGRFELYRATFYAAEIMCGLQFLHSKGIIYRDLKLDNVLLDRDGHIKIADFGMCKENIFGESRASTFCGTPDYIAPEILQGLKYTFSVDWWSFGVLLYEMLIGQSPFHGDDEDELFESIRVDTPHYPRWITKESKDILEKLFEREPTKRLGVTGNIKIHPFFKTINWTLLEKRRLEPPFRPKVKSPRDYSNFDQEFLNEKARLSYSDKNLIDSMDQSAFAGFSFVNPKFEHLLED
T3 sequence (P05771 whole entry): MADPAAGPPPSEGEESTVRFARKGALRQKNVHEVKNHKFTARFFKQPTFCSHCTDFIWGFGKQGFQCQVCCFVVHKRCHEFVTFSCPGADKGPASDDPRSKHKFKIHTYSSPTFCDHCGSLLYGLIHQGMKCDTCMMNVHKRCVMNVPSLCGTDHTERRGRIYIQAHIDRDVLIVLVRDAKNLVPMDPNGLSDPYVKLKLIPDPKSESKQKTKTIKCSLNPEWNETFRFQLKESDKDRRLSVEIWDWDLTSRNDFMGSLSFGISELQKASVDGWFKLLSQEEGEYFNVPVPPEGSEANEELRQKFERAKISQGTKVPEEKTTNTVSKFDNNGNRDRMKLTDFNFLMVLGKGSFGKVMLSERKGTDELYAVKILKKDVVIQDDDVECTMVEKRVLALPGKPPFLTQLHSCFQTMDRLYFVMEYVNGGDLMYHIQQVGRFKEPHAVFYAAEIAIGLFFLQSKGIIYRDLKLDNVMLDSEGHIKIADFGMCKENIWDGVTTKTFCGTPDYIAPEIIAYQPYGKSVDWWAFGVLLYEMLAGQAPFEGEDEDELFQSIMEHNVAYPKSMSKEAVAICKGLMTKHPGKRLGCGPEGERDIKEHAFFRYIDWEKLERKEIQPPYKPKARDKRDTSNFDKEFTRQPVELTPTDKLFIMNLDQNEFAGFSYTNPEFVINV
Protein kinase C eta type, sequence (P24723 whole entry): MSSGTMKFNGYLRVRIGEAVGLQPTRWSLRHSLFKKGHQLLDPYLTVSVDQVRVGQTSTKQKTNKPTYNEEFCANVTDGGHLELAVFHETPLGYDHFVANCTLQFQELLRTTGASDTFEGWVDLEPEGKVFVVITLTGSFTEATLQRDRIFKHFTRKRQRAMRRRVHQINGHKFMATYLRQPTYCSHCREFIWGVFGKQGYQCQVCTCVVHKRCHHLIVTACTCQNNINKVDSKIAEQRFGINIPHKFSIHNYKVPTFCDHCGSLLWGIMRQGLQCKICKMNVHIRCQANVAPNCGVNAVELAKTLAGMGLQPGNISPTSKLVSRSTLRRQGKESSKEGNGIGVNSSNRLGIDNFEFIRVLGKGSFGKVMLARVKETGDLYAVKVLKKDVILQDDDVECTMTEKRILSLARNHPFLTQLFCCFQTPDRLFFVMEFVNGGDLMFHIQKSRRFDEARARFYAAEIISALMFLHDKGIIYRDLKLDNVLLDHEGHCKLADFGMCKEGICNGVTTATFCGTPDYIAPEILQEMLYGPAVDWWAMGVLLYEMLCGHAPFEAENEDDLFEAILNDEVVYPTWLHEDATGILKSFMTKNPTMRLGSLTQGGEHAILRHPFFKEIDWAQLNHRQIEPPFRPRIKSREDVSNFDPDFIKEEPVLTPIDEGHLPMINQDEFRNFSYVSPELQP

Structure (SMILES) | IC50 [1] | IC50 [2] | IC50 [3] | IC50 [4] | IC50 [5] | IC50 [6] | IC50 [7] | IC50 [8] | IC50 [9]
CN1C2CCC1C(NC(=O)c1ccc(O)cc1)C(OC(=O)c1cc(O)c(C(=O)c3c(O)cccc3C(=O)O)c(O)c1)C2 (stereo not drawn) |  | > 50000 nM |  |  |  |  |  |  | 
CC(=O)N1C[C@@H](NC(=O)c2ccc(O)cc2)[C@H](OC(=O)c2cc(O)c(C(=O)c3c(O)cccc3C(=O)O)c(O)c2)C1 | 30 nM | 3600 nM | > 150 µM | 390 nM | 60 nM | 3700 nM | 820 nM | 1200 nM | 710 nM
O=C(N[C@@H]1CNC[C@H]1OC(=O)c1cc(O)c(C(=O)c2c(O)cccc2C(=O)O)c(O)c1)c1ccc(O)cc1 |  | 70 nM |  |  |  |  |  |  | 
O=C(NC1CNCCCC1OC(=O)c1cc(O)c(C(=O)c2c(O)cccc2C(=O)O)c(O)c1)c1ccc(O)cc1 (racemic) |  |  | 3.5 µM |  | 20 nM |  |  | 70 nM | 
CC1(C)C2CCC1(C)[C@@H](OC(=O)c1cc(O)c(C(=O)c3c(O)cccc3C(=O)O)c(O)c1)[C@@H]2NC(=O)c1ccc(O)cc1 (stereo partly drawn) | 310 nM | 26000 nM | > 50 µM | 210 nM | 340 nM | 3600 nM | 80 nM | 410 nM | 310 nM
O=C(N[C@@H]1C2CCC(C2)[C@H]1OC(=O)c1cc(O)c(C(=O)c2c(O)cccc2C(=O)O)c(O)c1)c1ccc(O)cc1 (stereo partly drawn) | 20 nM | 1900 nM |  | 40 nM | 20 nM | 30 nM | 30 nM | 60 nM | 50 nM
O=C(N[C@H]1CNCCC[C@@H]1OC(=O)c1cc(O)c(C(=O)c2c(O)cccc2C(=O)O)c(O)c1)c1ccc(O)cc1 | 260 nM |  | > 150 µM | 400 nM | 420 nM |  | 880 nM | 3000 nM | 500 nM
CS(=O)(=O)N1C[C@@H](NC(=O)c2ccc(O)cc2)[C@H](OC(=O)c2cc(O)c(C(=O)c3c(O)cccc3C(=O)O)c(O)c2)C1 | 62 nM | 4500 nM | > 150 µM | 400 nM | 35 nM | 1300 nM | 350 nM | 910 nM | 330 nM
O=C(N[C@@H]1CS(=O)(=O)CCC[C@H]1OC(=O)c1cc(O)c(C(=O)c2c(O)cccc2C(=O)O)c(O)c1)c1ccc(O)cc1 | 800 nM | 38000 nM | > 150 µM | 4300 nM | 4000 nM | 45000 nM | 3600 nM | 9600 nM | 5200 nM
O=C(N[C@@H]1CNCCC[C@H]1OC(=O)c1cc(O)c(C(=O)c2c(O)cccc2C(=O)O)c(O)c1)c1ccc(O)cc1 [BALANOL] |  |  | 7.4 µM | 20 nM | 4 nM |  |  |  | 
CNC(=O)N1C[C@@H](NC(=O)c2ccc(O)cc2)[C@H](OC(=O)c2cc(O)c(C(=O)c3c(O)cccc3C(=O)O)c(O)c2)C1 | 130 nM | 3000 nM | > 50 µM | 410 nM | 40 nM | 3600 nM | 1800 nM | 2200 nM | 680 nM
O=C(N[C@@H]1CSCCC[C@H]1OC(=O)c1cc(O)c(C(=O)c2c(O)cccc2C(=O)O)c(O)c1)c1ccc(O)cc1 | 100 nM | 7500 nM |  | 1000 nM | 90 nM | 5900 nM | 2400 nM | 3300 nM | 3800 nM
COC(=O)N1C[C@@H](NC(=O)c2ccc(O)cc2)[C@H](OC(=O)c2cc(O)c(C(=O)c3c(O)cccc3C(=O)O)c(O)c2)C1 | 90 nM | 13000 nM | > 150 µM | 540 nM | 100 nM | 4800 nM | 2700 nM | 540 nM | 810 nM
O=C(N[C@@H]1CCCCC[C@H]1OC(=O)c1cc(O)c(C(=O)c2c(O)cccc2C(=O)O)c(O)c1)c1ccc(O)cc1 |  | 1400 nM |  |  |  |  |  |  | 
O=C(N[C@@H]1C2CC(C3CCCC32)[C@H]1OC(=O)c1cc(O)c(C(=O)c2c(O)cccc2C(=O)O)c(O)c1)c1ccc(O)cc1 (stereo partly drawn) |  | 32000 nM |  |  |  |  |  |  | 
O=C(N[C@@H]1CN2CCC(CC2)[C@H]1OC(=O)c1cc(O)c(C(=O)c2c(O)cccc2C(=O)O)c(O)c1)c1ccc(O)cc1 | 26 nM | 1700 nM |  | 140 nM | 110 nM | 170 nM | 69 nM | 410 nM | 26 nM

The next lines start with the values.

IC50 [1] | IC50 [2] | IC50 [3] | IC50 [4] | IC50 [5] | IC50 [6] | IC50 [7] | IC50 [8] | IC50 [9] | Structure (SMILES)
90 nM | 350 nM |  |  |  |  |  |  |  | O=C(N[C@@H]1CNCC[C@H]1OC(=O)c1cc(O)c(C(=O)c2c(O)cccc2C(=O)O)c(O)c1)c1ccc(O)cc1
3 nM | 50 nM | 1.2 µM | 5 nM | 5 nM | 10 nM | 2 nM | 20 nM | 4 nM | N[C@@H]1C[C@@H](NC(=O)c2ccc(O)cc2)[C@H](OC(=O)c2cc(O)c(C(=O)c3c(O)cccc3C(=O)O)c(O)c2)C1
2 nM | 230 nM |  | 5 nM | 4 nM | 160 nM | 3 nM | 10 nM | 4 nM | O=C(N[C@@H]1C[C@H](CO)C[C@H]1OC(=O)c1cc(O)c(C(=O)c2c(O)cccc2C(=O)O)c(O)c1)c1ccc(O)cc1
20 nM | 220 nM |  | 50 nM | 20 nM | 270 nM | 20 nM | 80 nM | 60 nM | O=C(N[C@@H]1C[C@@H](CO)C[C@H]1OC(=O)c1cc(O)c(C(=O)c2c(O)cccc2C(=O)O)c(O)c1)c1ccc(O)cc1
3 nM | 170 nM | 2.8 µM | 5 nM | 6 nM | 30 nM | 4 nM | 20 nM | 4 nM | NC[C@H]1C[C@@H](NC(=O)c2ccc(O)cc2)[C@H](OC(=O)c2cc(O)c(C(=O)c3c(O)cccc3C(=O)O)c(O)c2)C1
4 nM | 250 nM |  | 30 nM | 6 nM | 150 nM | 20 nM | 50 nM | 30 nM | O=C(N[C@@H]1C[C@@H](O)C[C@H]1OC(=O)c1cc(O)c(C(=O)c2c(O)cccc2C(=O)O)c(O)c1)c1ccc(O)cc1
10 nM | 450 nM | > 150 µM | 1000 nM | 90 nM | 16000 nM | 3300 nM | 6700 nM | 2500 nM | O=C(N[C@@H]1COCCC[C@H]1OC(=O)c1cc(O)c(C(=O)c2c(O)cccc2C(=O)O)c(O)c1)c1ccc(O)cc1
3 nM | 90 nM | 3.1 µM | 10 nM | 20 nM | 30 nM | 5 nM | 20 nM | 5 nM | NC[C@@H]1C[C@@H](NC(=O)c2ccc(O)cc2)[C@H](OC(=O)c2cc(O)c(C(=O)c3c(O)cccc3C(=O)O)c(O)c2)C1
4 nM | < 330 nM |  | 90 nM | 40 nM | 50 nM | 70 nM | 240 nM | 60 nM | CC(C)N1C[C@@H](NC(=O)c2ccc(O)cc2)[C@H](OC(=O)c2cc(O)c(C(=O)c3c(O)cccc3C(=O)O)c(O)c2)C1
3 nM | 130 nM |  | 20 nM | 5 nM | 100 nM | 10 nM | 40 nM | 20 nM | O=C(N[C@@H]1CC(O)C[C@H]1OC(=O)c1cc(O)c(C(=O)c2c(O)cccc2C(=O)O)c(O)c1)c1ccc(O)cc1 (stereo partly drawn)
